Test results from patent publication US20170066759A1, “AROMATIC 5-MEMBERED HETEROCYCLIC DERIVATIVE HAVING TRPV4-INHIBITING ACTIVITY” (Shionogi & Co., Ltd., priority 2012, published 2017).
Like-named read-outs stand apart in the source and are kept apart here.

Target: T1, human TRPV4 (hTRPV4/CHO cells) (Homo sapiens, UniProt Q9HBA0)
T1 construct: expressed in transfected cells; host or cells: CHO-K1
Test: Test Example 1: TRPV4 inhibitory activity (IC50 value), 4α-PDD stimulation, Fluo4 calcium fluorescence (FLIPR TETRA)
Assay type: cell-based

[1] = Test Example 1, 4α-PDD stimulation, read-out: Test 1 IC50

T1 sequence (Q9HBA0 whole entry): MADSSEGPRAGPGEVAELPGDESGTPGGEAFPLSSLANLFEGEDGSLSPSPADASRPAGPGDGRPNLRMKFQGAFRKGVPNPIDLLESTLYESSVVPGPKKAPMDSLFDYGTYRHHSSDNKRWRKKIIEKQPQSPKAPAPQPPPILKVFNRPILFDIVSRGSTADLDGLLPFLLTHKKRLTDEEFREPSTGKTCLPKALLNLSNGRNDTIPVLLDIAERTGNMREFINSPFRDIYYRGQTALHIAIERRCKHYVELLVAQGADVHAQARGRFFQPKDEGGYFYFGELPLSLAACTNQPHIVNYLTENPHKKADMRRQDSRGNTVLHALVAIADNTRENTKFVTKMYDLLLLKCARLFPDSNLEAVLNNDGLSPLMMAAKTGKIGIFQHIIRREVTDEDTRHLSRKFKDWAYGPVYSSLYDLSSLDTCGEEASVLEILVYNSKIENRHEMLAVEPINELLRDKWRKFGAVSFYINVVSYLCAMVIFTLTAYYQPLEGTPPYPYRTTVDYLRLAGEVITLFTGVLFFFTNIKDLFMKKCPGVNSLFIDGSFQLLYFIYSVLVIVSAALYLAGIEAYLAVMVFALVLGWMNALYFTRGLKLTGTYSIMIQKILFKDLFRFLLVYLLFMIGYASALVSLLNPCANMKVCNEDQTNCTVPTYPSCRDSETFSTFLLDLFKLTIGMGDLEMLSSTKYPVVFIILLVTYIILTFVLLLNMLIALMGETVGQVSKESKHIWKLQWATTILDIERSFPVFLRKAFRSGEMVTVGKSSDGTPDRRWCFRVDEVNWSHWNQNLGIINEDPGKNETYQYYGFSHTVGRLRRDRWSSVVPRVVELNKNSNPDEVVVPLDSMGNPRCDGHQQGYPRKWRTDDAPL

IC50 [1] [nM]	IC50 (1 μmol/L 4α-PDD, Fluo4-AM, read-out: TRPV4 inhibitory activity (IC50 value)) [nM]	Structure (SMILES)
< 100		O=C(Cc1ccc(S(=O)(=O)C(F)(F)F)cc1)Nc1nc(-c2sc(CO)nc2CCCO)cs1 [Compound I-360]
1000 to 8000		Cc1nc(CO)sc1-c1csc(NC(=O)C2CC(N3CCC(F)(F)C3)C2)n1 (stereo not drawn) [Compound I-361]
1000 to 8000		Cc1nc(CO)sc1-c1csc(NC(=O)C2CC(N3CCC(F)(F)C3)C2)n1 (stereo not drawn) [Compound I-362]
100 to 1000		O=C(Cc1ccc(S(=O)(=O)C(F)(F)F)cc1)Nc1nc(-c2sc(CO)nc2CCC(=O)N2CCOCC2)cs1 [Compound I-363]
1000 to 8000		Cc1nc(C)c(-c2csc(N(CCCN3CCOCC3)C(=O)Cc3ccc(S(=O)(=O)C(F)(F)F)cc3)n2)s1 [Compound I-364]
< 100		Cc1nc(C)c(-c2csc(NC(=O)[C@H]3C[C@H](Oc4ccc(C(F)(F)F)cc4)C3)n2)s1 [Compound I-365]
< 100		O=C(Cc1ccc(S(=O)(=O)C(F)(F)F)cc1)Nc1nc(-c2sc(CO)nc2CCO)cs1 [Compound I-366]
< 100		Cc1nc(C)c(-c2csc(NC(=O)[C@H]3C[C@@H](N(C)Cc4ccc(C(F)(F)F)cc4)C3)n2)s1 [Compound I-367]
< 100		Cc1nc(C)c(-c2csc(NC(=O)[C@H]3C[C@H](N(C)Cc4ccc(C(F)(F)F)cc4)C3)n2)s1 [Compound I-368]
< 100		Cc1nc(CO)sc1-c1csc(NC(=O)C2CN(c3ccc(C(F)(F)F)cc3)C2)n1 [Compound I-369]
< 100		NC(=O)OCCc1nc(CO)sc1-c1csc(NC(=O)Cc2ccc(S(=O)(=O)C(F)(F)F)cc2)n1 [Compound I-370]
100 to 1000		O=C(Nc1nc(-c2sc(CO)nc2CO)cs1)C1CN(c2ccccc2)C1 [Compound I-371]
100 to 1000		O=C(Nc1nc(-c2sc(CO)nc2CO)cs1)C1CN(c2ccc(F)cc2)C1 [Compound I-372]
< 100		NC(=O)OCc1nc(CO)sc1-c1csc(NC(=O)Cc2ccc(S(=O)(=O)C(F)(F)F)cc2)n1 [Compound I-373]
1000 to 8000		Cc1nc(C)c(-c2csc(N(Cc3ccc(C(F)(F)F)cc3)C(=O)C3CN(O)C3)n2)s1 [Compound I-374]
< 100		O=C(Cc1ccc(S(=O)(=O)C(F)(F)F)cc1)Nc1nc(-c2sc(CO)nc2CCN2CCOCC2)cs1 [Compound I-375]
1000 to 8000		O=C(Cc1ccc(S(=O)(=O)C(F)(F)F)cc1)Nc1nc(-c2sc(CO)nc2CC(=O)N2CCOCC2)cs1 [Compound I-376]
< 100		O=C(Cc1ccc(S(=O)(=O)C(F)(F)F)cc1)Nc1nc(-c2sc(CO)nc2CCCN2CCOCC2)cs1 [Compound I-377]
100 to 1000		Cc1nc(COC(N)=O)sc1-c1csc(NC(=O)Cc2ccc(S(=O)(=O)C(F)(F)F)cc2)n1 [Compound I-378]
< 100		Cc1nc(C)c(-c2csc(NC(=O)C3CCN(c4ncc(C(F)(F)F)cn4)CC3)n2)s1 [Compound I-379]
100 to 1000		Cc1nc(CO)oc1-c1csc(NC(=O)Cc2ccc(S(=O)(=O)C(F)(F)F)cc2)n1 [Compound I-380]
100 to 1000		NC(=O)NCc1nc(CO)sc1-c1csc(NC(=O)Cc2ccc(S(=O)(=O)C(F)(F)F)cc2)n1 [Compound I-381]
< 100	22	CC(=O)NCc1nc(CO)sc1-c1csc(NC(=O)Cc2ccc(S(=O)(=O)C(F)(F)F)cc2)n1 [Compound I-382]
100 to 1000		O=C(CO)NCc1nc(CO)sc1-c1csc(NC(=O)Cc2ccc(S(=O)(=O)C(F)(F)F)cc2)n1 [Compound I-383]
100 to 1000		NS(=O)(=O)NCc1nc(CO)sc1-c1csc(NC(=O)Cc2ccc(S(=O)(=O)C(F)(F)F)cc2)n1 [Compound I-384]

IC50 [1] [nM]	IC50 (1 μmol/L 4α-PDD, Fluo4-AM, read-out: TRPV4 inhibitory activity (IC50 value)) [nM]	Structure (SMILES)
100 to 1000		O=C(Cc1ccc(S(=O)(=O)C(F)(F)F)cc1)Nc1nc(-c2sc(CO)nc2CN2CCOCC2)cs1 [Compound I-385]
1000 to 8000		Cc1nc(C)c(-c2csc(NC(=O)OC3CN(c4ncc(C(F)(F)F)cn4)C3)n2)s1 [Compound I-386]
< 100		Cc1nc(C)c(-c2csc(NC(=O)[C@H]3CCN(c4ncc(C(F)(F)F)cn4)C3)n2)s1 [Compound I-388]
< 100		CNC(=O)NCc1nc(CO)sc1-c1csc(NC(=O)Cc2ccc(S(=O)(=O)C(F)(F)F)cc2)n1 [Compound I-389]
< 100		CN(C)C(=O)NCc1nc(CO)sc1-c1csc(NC(=O)Cc2ccc(S(=O)(=O)C(F)(F)F)cc2)n1 [Compound I-390]
100 to 1000		CN(Cc1nc(CO)sc1-c1csc(NC(=O)Cc2ccc(S(=O)(=O)C(F)(F)F)cc2)n1)C(N)=O [Compound I-391]
< 100		Cc1nc(CC#N)sc1-c1csc(NC(=O)Cc2ccc(S(=O)(=O)C(F)(F)F)cc2)n1 [Compound I-392]
100 to 1000		CC(=O)N(C)Cc1nc(CO)sc1-c1csc(NC(=O)Cc2ccc(S(=O)(=O)C(F)(F)F)cc2)n1 [Compound I-393]
< 100		Cc1nc(C)c(-c2csc(NC(=O)[C@@H]3CCN(c4ncc(C(F)(F)F)cn4)C3)n2)s1 [Compound I-394]
< 100		N#CCc1nc(CO)sc1-c1csc(NC(=O)C2CN(c3ncc(C(F)(F)F)cn3)C2)n1 [Compound I-395]
< 100		Cc1nc(CN)sc1-c1csc(NC(=O)Cc2ccc(S(=O)(=O)C(F)(F)F)cc2)n1 [Compound I-396]
100 to 1000		CC(=O)NCc1nc(C)c(-c2csc(NC(=O)Cc3ccc(S(=O)(=O)C(F)(F)F)cc3)n2)s1 [Compound I-397]
1000 to 8000		Cc1nc(CNC(N)=O)sc1-c1csc(NC(=O)Cc2ccc(S(=O)(=O)C(F)(F)F)cc2)n1 [Compound I-398]
1000 to 8000		Cc1nc(CNS(C)(=O)=O)sc1-c1csc(NC(=O)Cc2ccc(S(=O)(=O)C(F)(F)F)cc2)n1 [Compound I-399]
100 to 1000		COC(=O)NCc1nc(C)c(-c2csc(NC(=O)Cc3ccc(S(=O)(=O)C(F)(F)F)cc3)n2)s1 [Compound I-400]
100 to 1000		Cc1nc(C)c(-c2csc(NC(=O)CC3CN(c4ncc(C(F)(F)F)cn4)C3)n2)s1 [Compound I-401]
100 to 1000		Cc1nc(C#N)sc1-c1csc(NC(=O)Cc2ccc(S(=O)(=O)C(F)(F)F)cc2)n1 [Compound I-402]
100 to 1000		Cc1nc(CO)sc1-c1csc(NC(=O)C2CN(S(=O)(=O)C(F)(F)F)C2)n1 [Compound I-403]
100 to 1000		Cc1nc(C(=N)N)sc1-c1csc(NC(=O)Cc2ccc(S(=O)(=O)C(F)(F)F)cc2)n1 [Compound I-404]
< 100		Cc1nc(CO)sc1-c1csc(NC(=O)[C@H]2C[C@@H](c3ccc(C(F)(F)F)cc3)C2)n1 [Compound I-405]
1000 to 8000		Cc1nc(CO)sc1-c1csc(NC(=O)Cn2cnc(C(F)(F)F)c2)n1 [Compound I-406]
100 to 1000		NC(=O)CCc1nc(CO)sc1-c1csc(NC(=O)Cc2ccc(S(=O)(=O)C(F)(F)F)cc2)n1 [Compound I-407]
< 100		Cc1nc(C)c(-c2csc(NC(=O)Cc3cccc(Br)c3)n2)s1 [Compound I-408]
100 to 1000		Cc1nc(C)c(-c2csc(NC(=O)Cc3cccc(N)c3)n2)s1 [Compound I-409]
< 100		Cc1nc(CO)sc1-c1csc(NC(=O)Cc2cnc(C(F)(F)F)cn2)n1 [Compound I-410]

IC50 [1] [nM]	IC50 (1 μmol/L 4α-PDD, Fluo4-AM, read-out: TRPV4 inhibitory activity (IC50 value)) [nM]	Structure (SMILES)
100 to 1000		Cc1nc(CC(N)=O)sc1-c1csc(NC(=O)Cc2ccc(S(=O)(=O)C(F)(F)F)cc2)n1 [Compound I-411]
1000 to 8000		CN(C)Cc1nc(CO)sc1-c1csc(NC(=O)Cc2ccc(S(=O)(=O)C(F)(F)F)cc2)n1 [Compound I-412]
100 to 1000		Cc1nc(C)c(-c2csc(NC(=O)Cc3ccc(NC(=O)c4ccccc4)cc3)n2)s1 [Compound I-413]
1000 to 8000		CC(=O)Nc1cccc(CC(=O)Nc2nc(-c3sc(C)nc3C)cs2)c1 [Compound I-414]
100 to 1000		Cc1nc(C)c(-c2csc(NC(=O)Cc3cccc(NC(=O)C(C)C)c3)n2)s1 [Compound I-415]
< 100		Cc1nc(C)c(-c2csc(NC(=O)Cc3cccc(NC(=O)C4CCCCC4)c3)n2)s1 [Compound I-416]
< 100		Cc1nc(C)c(-c2csc(NC(=O)Cc3cccc(NC(=O)C(F)(F)F)c3)n2)s1 [Compound I-417]
< 100		Cc1nc(C)c(-c2csc(NC(=O)Cc3cccc(NS(=O)(=O)c4ccccc4)c3)n2)s1 [Compound I-418]
1000 to 8000		Cc1nc(CO)oc1-c1csc(NC(=O)Cn2cc(C(F)(F)F)cn2)n1 [Compound I-419]
1000 to 8000		Cc1nc(C)c(-c2csc(NC(=O)Cn3cc(CNC(=O)OC(C)(C)C)nn3)n2)s1 [Compound I-421]
100 to 1000		Cc1nc(C)c(-c2csc(NC(=O)Cn3cc(-c4ccc(S(C)(=O)=O)cc4)nn3)n2)s1 [Compound I-422]
< 100		Cc1nc(C)c(-c2csc(NC(=O)Cn3cc(-c4ccc(Cl)cc4)nn3)n2)s1 [Compound I-423]
< 100		Cc1nc(C)c(-c2csc(NC(=O)Cn3cc(COc4ccccc4)nn3)n2)s1 [Compound I-424]
100 to 1000		Cc1nc(C)c(-c2csc(NC(=O)Cn3cc(CNc4ccccc4)nn3)n2)s1 [Compound I-425]
1000 to 8000		Cc1nc(C)c(-c2csc(NC(=O)Cn3cc(-c4ccccn4)nn3)n2)s1 [Compound I-426]
100 to 1000		Cc1nc(C)c(-c2csc(NC(=O)Cn3cc(-c4ccc(N(C)C)cc4)nn3)n2)s1 [Compound I-427]
100 to 1000		Cc1nc(C)c(-c2csc(NC(=O)Cn3cc(Cn4cccc4)nn3)n2)s1 [Compound I-428]
1000 to 8000		Cc1nc(C)c(-c2csc(NC(=O)Cn3cc(CCCC#N)nn3)n2)s1 [Compound I-429]
100 to 1000		Cc1nc(C)c(-c2csc(NC(=O)Cn3cc(C4CC4)nn3)n2)s1 [Compound I-430]
1000 to 8000		CCOc1cn(CC(=O)Nc2nc(-c3sc(C)nc3C)cs2)nn1 [Compound I-431]
100 to 1000		Cc1nc(C)c(-c2csc(NC(=O)Cc3cccc(N(C)C(=O)c4ccccc4)c3)n2)s1 [Compound I-432]
100 to 1000		Cc1nc(CO)sc1-c1csc(NC(=O)C2CN(S(=O)(=O)CCC(F)(F)F)C2)n1 [Compound I-433]
< 100		COC(=O)N(C)Cc1nc(CO)sc1-c1csc(NC(=O)Cc2ccc(S(=O)(=O)C(F)(F)F)cc2)n1 [Compound I-434]
< 100		COC(=O)NCc1nc(CO)sc1-c1csc(NC(=O)Cc2ccc(S(=O)(=O)C(F)(F)F)cc2)n1 [Compound I-435]
